Results as given in PMC10257182, “Discovery of senolytics using machine learning” (Nature Communications, 2023).
Where two headings read alike, the source gives them in different places.

What was measured:
Type in all cases: cell-based, human
[1] = system: senescent IMR90 ER:RAS cells (4-OHT-induced); assay: Nuclei count (Hoechst, high content imaging) senolytic assay, oncogene-induced senescence (OIS) model, senescent cells
Description: To test for senolytic activity, we compared the effect of each compound on the total cell number (automated high content image-based analysis of total number of nuclei per well) in non-senescent and senescent IMR90 ER:RAS cultures treated with the top hits from the computational screen (Figs. 2e and 3a–d and Supplementary Fig. 4a–c). The drop in cell number compared to untreated controls is indicated by the nuclei count and reflects cell death[13],[15]. As positive control, we employed ouabain, a cardiac glycoside with well characterised senolytic activity.
(§1) We performed experimental validation of the compounds with z-score > 8 (Fig. 2e). […] We employed two cellular models of senescence: one of OIS and a second one of TIS. For the OIS case, we utilised IMR90 ER:RAS cells with 4-OHT at 100 nM. […] For the TIS model, we used A549 cells with etoposide at 100 μM. The exposure of the cells to etoposide lasted 48 h, after which period the cells were cultivated for a further three days with normal media.
(§2) IMR90 (CCL-186) human foetal lung fibroblasts and A549 (CCL-185) human lung adenocarcinoma cells were obtained from the American Type Culture Collection (ATCC, Manassas, VA). The cell lines were confirmed to be mycoplasma negative (Lonza MycoAlert, cat #LT07-118). IMR90 ER:RAS is a derivative of IMR90 cells expressing a switchable version of oncogenic H-Ras[84]. IMR90 ER:RAS and A549 cells were maintained in Dulbecco’s Modified Eagle Medium (DMEM, ThermoFisher) supplemented with foetal bovine serum (10%), L-glutamine (2 mM, ThermoFisher), and antibiotic-antimycotic solution (1%, ThermoFisher) and incubated under standard tissue culture conditions (37 °C and 5% CO2). For induction of the senescent phenotype, IMR90-ER:RAS cells were cultured in hydroxytamoxifen (4-OHT) (Sigma) added media at 100 nM final concentration. IMR90 were kept in culture for over 27 passages for replicative senescence. Cells were tested for mycoplasma on a regular basis.
(§3) Cells were seeded (50 μL per well) into 384-well plates (IMR90 ER:RAS cells in Nunc Optical Bottom Polybase Microplates [#142761, Thermo Scientific, Rochester, NY] and A549 cells in CELLSTAR Cell Culture Microplates [#781091, Greiner Bio-One, Kremsmünster, Austria]). Cells were incubated under standard tissue culture conditions for 24 h before the addition of compounds. Passage 14 IMR90 ER:RAS cells were seeded at 1300 cells per well in the control condition, and at 1600 cells per well in the senescent case. Passage 34 A549 cells were seeded at 7000 cells per well in the control condition, and at 10,000 cells per well in the senescent case.
(§4) Dose response plates were prepared with a DMSO control and a 10-point […] concentration range, and added to the compounds using a D300e digital dispenser (Tecan Trading AG, Switzerland) at a final concentration of between 10 μM and 10 nM. Every screened condition was carried out in triplicate. After 72 h of incubation with exposure to the compounds, cells were fixed by the addition of an equal volume of formaldehyde (8%, 50 μL; #BP531-500, Fisher Bioreagents, Fisher Scientific, Loughborough, Leicestershire) to the existing media, incubated at room temperature (30 min), and washed three times in phosphate-buffered saline (PBS). Cells were then permeabilised in Triton-X100 (0.1%, 50 μL) and incubated at room temperature (30 min) followed by three more washes with PBS.
(§5) Cells were stained with Hoechst 33342 for nuclei count (excitation/emission wavelength at 387/447 […], DAPI channel, original concentration at 10 mg/ml, final concentration at 2 μg/ml; H1399, Molecular Probes, Eugene, OR). The staining solution was prepared in bovine serum albumin solution (10%). The staining solution was added to each well (30 μL) and incubated in the dark at room temperature (30 min), followed by three washes with PBS and no final aspiration. Plates were foil sealed.

[2] = system: senescent A549 cells (etoposide-induced); assay: Nuclei count senolytic assay, therapy-induced senescence (TIS) model, senescent cells; conditions: Homo sapiens, A549, Senescent cells, mean, read-out: Mean % Cell Survival
Description: (§6) We performed a second validation of the effectiveness of our machine learning models using a different stressor. We focused on therapy-induced senescence (TIS, Supplementary Fig. 6a), where human epithelial cancerous cells (A549) were induced to become senescent by addition of etoposide. Cells were treated with 100 μM etoposide for 48 h, followed by another three days of exposure to media in standard conditions.
as §1, §2, §3, §4, §5
(§7) Plates were imaged on an ImageXpress micro XLS (Molecular Devices, Eugene, OR) equipped with a robotic plate loader (Scara4, PAA, UK).

[3] = system: non-senescent control A549 cells; assay: Nuclei count senolytic assay, TIS model, non-senescent control cells; conditions: Homo sapiens, A549, Control cells, mean, read-out: Mean % Cell Survival
Description: as §6, §1, §2, §3, §4, §5, §7

## O=c1c(O)c(-c2ccc(O)cc2O)oc2cc(O)cc(O)c12 [Morin, morin]
[1]; Homo sapiens, IMR-90, 72 h, Senescent, log (dose) [M] -5, 72 h, mean n=3 (Fig 3C), read-out: Mean % Cell Survival
  viability at 10 µM: 75%
[1]; Homo sapiens, IMR-90, 72 h, Senescent, log (dose) [M] -5.33, 72 h, mean n=3 (Fig 3C), read-out: Mean % Cell Survival
  viability at 4.677 µM: 90.7%
[1]; Homo sapiens, IMR-90, 72 h, Senescent, log (dose) [M] -5.66, 72 h, mean n=3 (Fig 3C), read-out: Mean % Cell Survival
  viability at 2.188 µM: 96.2%
[1]; Homo sapiens, IMR-90, 72 h, Senescent, log (dose) [M] -6, 72 h, mean n=3 (Fig 3C), read-out: Mean % Cell Survival
  viability at 1 µM: 91.1%
[1]; Homo sapiens, IMR-90, 72 h, Senescent, log (dose) [M] -6.33, 72 h, mean n=3 (Fig 3C), read-out: Mean % Cell Survival
  viability at 0.4677 µM: 91.7%
[1]; Homo sapiens, IMR-90, 72 h, Senescent, log (dose) [M] -6.66, 72 h, mean n=3 (Fig 3C), read-out: Mean % Cell Survival
  viability at 0.2188 µM: 92.4%
[1]; Homo sapiens, IMR-90, 72 h, Senescent, log (dose) [M] -7, 72 h, mean n=3 (Fig 3C), read-out: Mean % Cell Survival
  viability at 0.1 µM: 96.6%
[1]; Homo sapiens, IMR-90, 72 h, Senescent, log (dose) [M] -7.33, 72 h, mean n=3 (Fig 3C), read-out: Mean % Cell Survival
  viability at 0.04677 µM: 95.3%
[1]; Homo sapiens, IMR-90, 72 h, Senescent, log (dose) [M] -7.66, 72 h, mean n=3 (Fig 3C), read-out: Mean % Cell Survival
  viability at 0.02188 µM: 92.3%
[1]; Homo sapiens, IMR-90, 72 h, Senescent, log (dose) [M] -8, 72 h, mean n=3 (Fig 3C), read-out: Mean % Cell Survival
  viability at 0.01 µM: 94.2%
[1]; Homo sapiens, IMR-90, Senescent cells, log (dose) [M] -5, individual replicates, SUP FIG 4C, read-out: % Cell Survival
  viability at 10 µM: 75.9%
[1]; Homo sapiens, IMR-90, Senescent cells, log (dose) [M] -7.33, individual replicates, SUP FIG 4C, read-out: % Cell Survival
  viability at 0.04677 µM: 87%
[1]; Homo sapiens, IMR-90, Senescent cells, log (dose) [M] -7.66, individual replicates, SUP FIG 4C, read-out: % Cell Survival
  viability at 0.02188 µM: 91.1%
[1]; Homo sapiens, IMR-90, Senescent, log (dose) [M] -5.66, read-out: % Cell Survival
  viability at 2.188 µM: 55.7%
[1]; Homo sapiens, IMR-90, Senescent, log (dose) [M] -6, read-out: % Cell Survival
  viability at 1 µM: 62.4%
[1]; Homo sapiens, IMR-90, Senescent, log (dose) [M] -6.66, read-out: % Cell Survival
  viability at 0.2188 µM: 63.2%
[1]; Homo sapiens, IMR-90, Senescent, log (dose) [M] -7.66, read-out: % Cell Survival
  viability at 0.02188 µM: 95.7%
[1]; Homo sapiens, IMR-90, Senescent, log (dose) [M] -8, read-out: % Cell Survival
  viability at 0.01 µM: 93.7%
[1]; experimental screen, OIS IMR90 ER:RAS
  senolytic activity (in words): inactive
[2]; log (dose) [M] -5
  viability at 10 µM: 87.9%
[2]; log (dose) [M] -5.33
  viability at 4.68 µM: 93.5%
[2]; log (dose) [M] -5.66
  viability at 2.19 µM: 59.5%
[2]; log (dose) [M] -6
  viability at 1 µM: 67.1%
[2]; log (dose) [M] -6.33
  viability at 0.468 µM: 88.2%
[2]; log (dose) [M] -6.66
  viability at 0.219 µM: 69.3%
[2]; log (dose) [M] -7
  viability at 0.1 µM: 84.2%
[2]; log (dose) [M] -7.33
  viability at 0.0468 µM: 54.5%
[2]; log (dose) [M] -7.66
  viability at 0.0219 µM: 87.7%
[2]; log (dose) [M] -8
  viability at 0.01 µM: 95.1%
[3]; log (dose) [M] -5
  viability at 10 µM: 33.9%
[3]; log (dose) [M] -5.33
  viability at 4.68 µM: 98.9%
[3]; log (dose) [M] -5.66
  viability at 2.19 µM: 63.6%
[3]; log (dose) [M] -6
  viability at 1 µM: 115%
[3]; log (dose) [M] -6.33
  viability at 0.468 µM: 104%
[3]; log (dose) [M] -6.66
  viability at 0.219 µM: 99.4%
[3]; log (dose) [M] -7
  viability at 0.1 µM: 94.4%
[3]; log (dose) [M] -7.33
  viability at 0.0468 µM: 111%
[3]; log (dose) [M] -7.66
  viability at 0.0219 µM: 67.6%
[3]; log (dose) [M] -8
  viability at 0.01 µM: 67.4%
